Assay results from patent publication US11702393B2, “Synthesis of a monoacylglycerol lipase inhibitor” (H. LUNDBECK A/S, priority 2020, dated 2023).
Read-outs that look alike come from different tables or passages of the source.

Tests used:
[1] = Particle size distribution determination by image analysis (Morphologi G3); type: physicochemical
Source text: The term “particle size distribution” (PSD) as used herein refers to the mean particle size from a statistical distribution of a range of particle sizes. The Compound I-HCl form 2 particle size distribution, in particular d90, d50, d10 values, may be determined by well-known methods of the prior art such as sieve analysis, laser diffraction methods, image analysis or optical counting methods.
As used herein, by “d90 particle size” refers to the particle diameter wherein 90 percent of the particle population has a diameter below such value.
As used herein, by “d50 particle size” refers to the median particle diameter, wherein half of the particle population has a diameter below such value.
As used herein, by “d10 particle size” refers to the particle diameter wherein 10 percent of the particle population has a diameter below such value.
The analysis of particle size distribution of each batch was performed by an image analysis method on a Morphologi G3 Automated Particle Characterization System (Malvern PaNanalytical) with a sample Dispersion Unit SDU Glass Plate (180×110 mm); the instrument automatically process the collected data using the software Morphologi ver. 8.20 and provides a cumulative distribution curve and results in terms of d10, d50 and d90.

[2] = process described in the prior art (WO2018/093953); cited from earlier work
[3] = made according to Example 13, not milled
[4] = made from Example 13, after milling (hammer mill, Example 14)

In the case of `Cl.O=C(OC(C(F)(F)F)C(F)(F)F)N1CCN(Cc2ccc(C(F)(F)F)cc2N2CCCC2)CC1` [Compound I-HCl form 2, 1,1,1,3,3,3-hexafluoropropan-2-yl 4-(2-(pyrrolidin-1-yl)-4-(trifluoromethyl)benzyl)piperazine-1-carboxylate mono-hydrochloride salt Form 2], the d10 particle size [1, 3] is reported as “d10 53.5 μm”, the d50 particle size [1, 3] is reported as “d50 133.1 μm” and the d90 particle size [1, 3] is reported as “d90 201.7 μm”. For the same compound, the d10 particle size [1, 4] was “d10 24 μm”, the d50 particle size [1, 4] was “d50 67 μm” and the d90 particle size [1, 4] was “d90 175 μm”. For the same compound, the d10 particle size [2] was ≥ 5 µm and the d90 particle size [2] was “up to 300 μm”.
